According to patent publication US4201843A, “Process for manufacturing tylosin derivatives” (Sanraku Ocean Co., Ltd., priority 1975, dated 1980):
Values after ≈ are worked out from the molar mass of the structure shown.

Columns and labels:
[1] = tested on: Streptococcus pyogenes MH 771; assay: minimum growth-inhibitory concentration; format: cell-based; conditions: MH771, read-out: minimum growth-inhibitory concentration (MIC)
Procedure: (§1) The antimicrobial spectra of new tylosin derivatives of this invention are shown in Table 2 by listing the minimum growth inhibitory concentrations (MIC, mcg/ml). […] The toxicity of these compounds was tested in animals by intravenous administration, and the LD50 values in mice are more than 400 mg/kg with all compounds. In therapeutical experiments with mice manually infected by Staphilococcus aureus SMITH, the ED50 values were less than 50 mg/kg (p.o.) with all said tylosin derivatives.
(broth-dilution method)
(§2) The strains marked * in Table 2 are the drug resistant strains isolated from patients, namely, Staphilococcus aureus MS-9610 which is resistant to penicillin, tetracycline, erythromycin, leucomycin, spiramycin, josamycin and tylosin, Staphilococcus aureus MS-8710 which is resistant to penicillin, tetracycline, erythromycin, leucomycin and tylosin, and Streptococcus pyogenes MH 771 which is resistant to erythromycin, oleandomycin, leucomycin and tylosin.

[2] = basicity of the compounds (alkalinity); format: physicochemical
Text: (§3) The physicochemical analysis and deterimations included elementary analysis, melting point, specific rotatory power, ultraviolet spectrum, infrared spectrum, magnetic nuclear resonance (NMR), C^13 -NMR, mass spectrum (chemical ionization), the release of organic acids under alkaline conditions (gas chromatographical detection), solubility in solvents, color development reaction, basicity of the compounds, appearance and crystalline form. The molecular weight was obtained as QM^+ (Quasi Molecular ion) by chemically-ionized mass spectra analysis.
(§4) (2) the crystals obtained from the solvents in (13) were used for the tests in (1)-(12), and […]

[3] = tested on: drug resistant strains; assay: antimicrobial activity against drug resistant strains; format: cell-based; conditions: strains marked * in Table 2
Text: One of the particular advantages of the said tylosin derivatives over known macrolide antibiotics is their distinct antimicrobial activity against drug resistant bacteria.
as §2

[4] = tested on: Sarcina lutea ATCC 9341; assay: minimum growth-inhibitory concentration; format: cell-based; conditions: Micrococcus luteus, ATCC9341
Procedure: as §1

[5] = tested on: Mycobacterium smegmatis ATCC 607; assay: minimum growth-inhibitory concentration; format: cell-based; conditions: Mycolicibacterium smegmatis, ATCC607
Procedure: as §1

[6] = tested on: Staphylococcus aureus SMITH; assay: minimum growth-inhibitory concentration; format: cell-based
Procedure: as §1

[7] = tested on: Pseudomonas fluorescens NIHJB 254; assay: minimum growth-inhibitory concentration; format: cell-based; conditions: NIHJB254
Procedure: as §1

[8] = tested on: Corynebacterium bovis 1810; assay: minimum growth-inhibitory concentration; format: cell-based
Procedure: as §1

[9] = tested on: Micrococcus flavus I; assay: minimum growth-inhibitory concentration; format: cell-based
Procedure: as §1

[10] = tested on: Bacillus megaterium NRRL B-938; assay: minimum growth-inhibitory concentration; format: cell-based; conditions: Priestia megaterium, NRRLB938
Procedure: as §1

[11] = tested on: Escherichia coli (National Institute of Health); assay: minimum growth-inhibitory concentration; format: cell-based
Procedure: as §1

[12] = tested on: Bacillus cereus ATCC 9634; assay: minimum growth-inhibitory concentration; format: cell-based; conditions: ATCC9634
Procedure: as §1

[13] = tested on: Bacillus subtilis ATCC 6633; assay: minimum growth-inhibitory concentration; format: cell-based; conditions: ATCC6633
Procedure: as §1

[14] = tested on: Staphylococcus aureus FAD209P; assay: minimum growth-inhibitory concentration; format: cell-based; conditions: read-out: minimum growth-inhibitory concentration (MIC)
Procedure: as §1

[15] = tested on: Candida tropicalis IAM 4924; assay: minimum growth-inhibitory concentration; format: cell-based; conditions: IAM4924
Procedure: as §1

[16] = tested on: Proteus morganii (The Institute for Infectious Diseases); assay: minimum growth-inhibitory concentration; format: cell-based; conditions: Morganella morganii
Procedure: as §1

[17] = tested on: Candida albicans IAM 4905; assay: minimum growth-inhibitory concentration; format: cell-based; conditions: IAM4905
Procedure: as §1

[18] = tested on: Staphylococcus aureus MS 8710; assay: minimum growth-inhibitory concentration; format: cell-based; conditions: MS8710; Staphylococcus aureus MS 8710, drug resistant strain
Procedure: as §1, §2

[19] = tested on: Staphylococcus aureus MS 9610; assay: minimum growth-inhibitory concentration; format: cell-based; conditions: MS9610; Staphylococcus aureus MS 9610, drug resistant strain
Procedure: as §1, §2

[20] = solubility in solvents; format: physicochemical; conditions: for solubility in lower alcohols, ketones, ethers, esters, benzene and toluene: e.g. ethanol, acetone, ethyl ether, ethyl acetate
Text: as §3, §4

Row | Compound | MIC [1] | alkalinity [2] | MIC [4] | MIC [5] | MIC [6] | MIC [7] | MIC [8] | MIC [9] | MIC [10] | MIC [11] | MIC [12] | MIC [13] | MIC [14] | MIC [15] | MIC [16] | MIC [17] | MIC [18] | MIC [19] | solubility in acidic water [20] | solubility in alkaline water [20] | also measured
1 | CCC(=O)OC1CC(=O)OC(CC)C(COC2OC(C)C(O)C(OC)C2OC)C=C(C)C=CC(=O)C(C)CC(CC=O)C(OC2OC(C)C(OC3CC(C)(O)C(OC(=O)CC(C)C)C(C)O3)C(N(C)C)C2O)C1C (centres unmarked) [3-propionyl-4"-isovaleryltylosin] | 3.91 µg/mL (≈ 3.7 µM) | alkaline compounds | 0.25 µg/mL (≈ 0.237 µM) | 3.91 µg/mL (≈ 3.7 µM) | 1.95 µg/mL (≈ 1.85 µM) | > 250 µg/mL | 1 µg/mL (≈ 0.947 µM) | 0.49 µg/mL (≈ 0.464 µM) | 0.49 µg/mL (≈ 0.464 µM) | 250 µg/mL (≈ 237 µM) | 0.98 µg/mL (≈ 0.928 µM) | 0.49 µg/mL (≈ 0.464 µM) | 0.49 µg/mL (≈ 0.464 µM) | > 250 µg/mL | > 250 µg/mL | > 250 µg/mL | 15.6 µg/mL (≈ 14.8 µM) | 62.5 µg/mL (≈ 59.2 µM) | soluble | hardly soluble | antimicrobial activity against a wide range of drug resistant strains [3]: particularly strong antimicrobial activity; solubility in lower alcohols, ketones, ethers, esters, benzene and toluene [20]: soluble; solubility in n-hexane and petroleum ether [20]: hardly soluble; solubility in neutral water [20]: slightly soluble
2 | CCCC(=O)OC1C(C)OC(OC2C(C)OC(OC3C(CC=O)CC(C)C(=O)C=CC(C)=CC(COC4OC(C)C(O)C(OC)C4OC)C(CC)OC(=O)CC(OC(=O)CC)C3C)C(O)C2N(C)C)CC1(C)O (centres unmarked) [3-propionyl-4"-n-butyryltylosin] | 15.6 µg/mL (≈ 15 µM) | alkaline compounds | < 0.12 µg/mL | 3.91 µg/mL (≈ 3.75 µM) | 0.25 µg/mL (≈ 0.24 µM) | > 250 µg/mL | 0.5 µg/mL (≈ 0.48 µM) | 0.25 µg/mL (≈ 0.24 µM) | 0.49 µg/mL (≈ 0.47 µM) | 250 µg/mL (≈ 240 µM) | 1.95 µg/mL (≈ 1.87 µM) | 0.49 µg/mL (≈ 0.47 µM) | 0.98 µg/mL (≈ 0.94 µM) | > 250 µg/mL | > 250 µg/mL | > 250 µg/mL | 31.3 µg/mL (≈ 30 µM) | 250 µg/mL (≈ 240 µM) | soluble | hardly soluble | antimicrobial activity against a wide range of drug resistant strains [3]: particularly strong antimicrobial activity; solubility in lower alcohols, ketones, ethers, esters, benzene and toluene [20]: soluble; solubility in n-hexane and petroleum ether [20]: hardly soluble; solubility in neutral water [20]: slightly soluble
3 | CCC(=O)OC1CC(=O)OC(CC)C(COC2OC(C)C(O)C(OC)C2OC)/C=C(C)/C=C/C(=O)C(C)CC(CC=O)C(OC2OC(C)C(OC3CC(C)(O)C(O)C(C)O3)C(N(C)C)C2O)C1C (centres unmarked) [3-propionyltylosin] | 62.5 µg/mL (≈ 64.3 µM) | alkaline compounds | < 0.12 µg/mL | 3.91 µg/mL (≈ 4.02 µM) | 0.12 µg/mL (≈ 0.123 µM) | > 250 µg/mL | 0.25 µg/mL (≈ 0.257 µM) | < 0.12 µg/mL | < 0.12 µg/mL | 250 µg/mL (≈ 257 µM) | 0.25 µg/mL (≈ 0.257 µM) | 0.25 µg/mL (≈ 0.257 µM) | 0.25 µg/mL (≈ 0.257 µM) | > 250 µg/mL | > 250 µg/mL | > 250 µg/mL | 62.5 µg/mL (≈ 64.3 µM) | > 250 µg/mL | soluble | hardly soluble | solubility in lower alcohols, ketones, ethers, esters, benzene and toluene [20]: soluble; solubility in n-hexane and petroleum ether [20]: hardly soluble; solubility in neutral water [20]: slightly soluble
4 | CCC1OC(=O)CC(O)C(C)C(OC2OC(C)C(OC3CC(C)(O)C(OC(=O)CC(C)C)C(C)O3)C(N(C)C)C2O)C(CC=O)CC(C)C(=O)/C=C/C(C)=C/C1COC1OC(C)C(O)C(OC)C1OC (centres unmarked) [4"-isovaleryltylosin] | 7.8 µg/mL (≈ 7.8 µM) | alkaline compounds | < 0.12 µg/mL | 3.91 µg/mL (≈ 3.91 µM) | 0.25 µg/mL (≈ 0.25 µM) | > 250 µg/mL | 0.5 µg/mL (≈ 0.5 µM) | 0.25 µg/mL (≈ 0.25 µM) | 0.98 µg/mL (≈ 0.98 µM) | 125 µg/mL (≈ 125 µM) | 0.98 µg/mL (≈ 0.98 µM) | 0.49 µg/mL (≈ 0.49 µM) | 0.49 µg/mL (≈ 0.49 µM) | > 250 µg/mL | > 250 µg/mL | > 250 µg/mL | 15.6 µg/mL (≈ 15.6 µM) | 62.5 µg/mL (≈ 62.5 µM) | soluble | hardly soluble | antimicrobial activity against a wide range of drug resistant strains [3]: particularly strong antimicrobial activity; solubility in lower alcohols, ketones, ethers, esters, benzene and toluene [20]: soluble; solubility in n-hexane and petroleum ether [20]: hardly soluble; solubility in neutral water [20]: slightly soluble
